Experimental data: US20180094232A1, “Methods For The Cryopreservation Of Mammalian Cells” (The General Hospital Corporation, priority 2009, published 2018)
Entries after “also recorded” stand apart in the source; their conditions may differ. Where two headings read alike, the source gives them in different places.

How the values were obtained:
[1] = Vitrification of CPA laden solutions: opacity after plunging the device into liquid nitrogen; format: physicochemical
Source text: One convenient way for determining non-vitrification is the appearance of opacity as a result of ice formation when freezing solutions in a straw. If there is no visible opacity, it is called apparent vitrification. Although opacity could be easily identified in the traditional plastic straw using the naked eye, it is very difficult to do so for the quartz micro-capillary due to its small dimension. Therefore, an experimental setup shown in FIG. 10 was designed for visualization of opacity during cooling by directing two focused lights on the capillary held against a dark background for all the devices shown in FIG. 1 except the stainless steel micro-capillary. […] This setup was used to determine the threshold (minimum) CPA concentration required to completely avoid opacity during cooling. […] Various total CPA concentrations from 12% to 30% by volume with 2% increments were studied using both the open pulled straw and the thin walled quartz micro-capillary. Since 0.2-1 M sucrose or trehalose has been used in essentially all studies for cryopreservation of mammalian oocytes by both slow freezing and vitrification, further studies were also performed using the quartz micro-capillary for solutions with 0.5 M sucrose or trehalose plus 1.5 M, 2.0 M, and 2.5 M PROH, respectively. The solutions can be loaded into the open pulled straw and quartz micro-capillaries by capillary action while it can be expelled out of the capillaries by using a micro-syringe attached with a soft PEP polymer needle tip to push from the end of the capillaries with a bigger opening.

[2] = Critical cooling rate to achieve vitrification (Vcc) from Boutron's semi-empirical theory and DSC K4; format: physicochemical
Source text: The critical cooling rate to achieve vitrification (Vcc) is a function of the concentration of cryoprotectant. It has been extensively studied in the case of 1,2-propanediol and other alcohols with relevance in cryobiology, although mainly in the range of cooling rates achievable by differential scanning calorimetry (DSC) techniques. However, it is possible to obtain estimates of the critical cooling rates at other […]. The presence of sugars in equimolar concentrations has shown to have no effect on Vcc in the case of monosaccharides and little effect in the case of sucrose for the concentration used in these studies (0.3 M)(Kuleshova et al., Cryobiology 38: 199-130, 1999). The Vcc can be inferred from Boutron's semi-empirical theory of glass forming tendency (Boutron, Cryobiology 23:88-102, 1986); it is given by:
To is the initial temperature of crystallization and xg is the amount of ice formed at the critical cooling rate. Many studies in the literature consider a solution to be vitrified when xg≦10^−6 (Liu and McGrath, Proc. 2005 IEEE Eng. Med. Biol. 27th Ann. Conference, p. 7501-7504, 2005). K4 is a constant dependent of the solution and can be determined by DSC. Although there is not data for K4 in the available literature for our solution, some estimation can be done. The values of K4 for 40%, 37.5% and 35% (w/w) of aqueous solutions of 1,2 propanediol are 24.1° C./min, 54.1° C./min and 151° C./min (Ren et al., Cryobiology 31:47-56, 1994). These values of K4 give rise to Vcc values of 8.0×10^2° C./min, 1.8×10^3° C./min and 5.0×10^3° C./min, respectively. So, a tentative value of […] for 1.8 M of 1,2-propanediol is 10^4° C./min. […] The exponential fitting of the data is justified by the theory (Ren et al., supra).

[3] = test system: murine embryonic stem (ES) cells; assay: Attachment efficiency of ES cells post vitrification; format: cell-based; details: 0.5 M trehalose, 2 M PROH, alone or combined; QMC, liquid nitrogen; day 1
Procedure: On the day of experiment, the attached cells were lightly trypsinized for 3-5 minutes and collected. The cells were pelleted at 100×g for 5 minutes and resuspended in cold stem cell media supplemented with 1.5 M 1,2-propanediol (Sigma, St Louis, Mo.) and incubated on ice for 10 minutes. The cells were then spun down at 100×g for 3-5 minutes and resuspended in 1 ml first vitrification solution for 10 minutes. The cells were then spun down at 100×g for 3-5 minutes and resuspended in the second solution at 10×10^6/ml for another 10 minutes. The first vitrification solution was made of ES cell maintenance medium supplemented with 1.5 M 1,2-propanediol, while the second solution was supplemented with 2 M 1,2-propanediol and 0.5 M trehalose (Ferro Pfanstiehl Laboratories, Inc., Waukegan, Ill.). Cells were also cryopreserved using either 0.5 M trehalose or 2 M 1,2-propanediol only for comparison. […]
Cell attachment and growth was determined by counting the number of cells per field under a 10× objective. […] The attachment efficiency was calculated as the ratio of the total number of cells per field of a cryopreserved sample to that of the control non-frozen sample at day 1. To assess the proliferation of the attached cells, the total number of cells per field was further monitored for 4 days.

primary rat hepatocytes = assay: Hepatocyte viability post-cryopreservation in QMC, exclusion of trypan blue; format: cell-based; details: 1.5 M PROH, 0.3 M sucrose, or both, immediately post-cryopreservation
Procedure: The vitrification technique was also tested using primary liver cells (hepatocytes) due to their sensitivity to stress, and importance in liver tissue engineering and availability. The cell viability of hepatocytes was determined immediately post-cryopreservation in quartz micro-capillaries (QMC) in the presence of either no CPA; 0.3 M sucrose; 1.5 M 1,2-propanediol (PROH); 1.5 M PROH and 0.3 M sucrose; or 2.0 M PROH and […]. The number of viable cells was determined in both vitrified samples as well as non-vitrified controls (i.e., no freezing). Cell viability was quantified by the exclusion of trypan blue. […] There was only ˜35% survival for cells loaded with 1.5 M PROH prior to cryopreservation. Sucrose (0.3 M) was then added to the cryopreservation solution with 1.5-2 M PROH. […] When 0.3 M sucrose was added to the cryopreservation solution, the immediate viability jumped to ˜75%.

mouse oocytes = assay: Survival and morphology of mouse oocytes after vitrification in quartz capillaries; format: cell-based
Procedure: The 6-week-old B6D2F1 female mice were superovulated with 7.5 IU of pregnant mare serum gonadotrophin (Sigma-Aldrich, St. Louis, Mo., USA) and 7.5 IU of human chorionic gonadotrophin (Sigma-Aldrich) given by intraperitoneal injections 48 h apart. Fourteen hours after human chorionic gonadotrophin injection, females were anaesthetized with avertin (Sigma-Aldrich) then killed by cervical dislocation and their oviducts were removed. The cumulus-oocytecomplex was released from the ampullary region of each oviduct by puncturing the oviduct with a 27-gauge needle. Cumulus cells were removed by exposure to hyaluronidase (80 IU/ml) (Irvine Scientific, Santa Ana, Calif., USA) for 3 min and washed three times with human tubal fluid (HTF) medium (Irvine Scientific) with 10% fetal bovine serum (FBS; Gibco, Carlsbad, Calif., USA). Oocytes were transferred and cultured in HTF medium (Quinn et al., 1995) containing 10% FBS at 37° C. and 5% CO2 in air until they were vitrified.
All cryoprotectant solutions were filter-sterilized and stored at 4° C. prior to use. The base cryoprotectant solutions used were PrOH (Sigma-Aldrich) and trehalose (Ferro Pfanstiehl Laboratory, Waukegan, Ill., USA). The concentrations and types of cryoprotectants used were similar to those used in traditional slow-freezing protocols for human oocytes (Gook and Edgar, 2007) and are not typically vitrifiable. For vitrification, isolated mature oocytes were placed into HTF medium supplemented with 10% FBS. Two vitrification protocols using a HEPES-buffered physiological salt solution (FHM; Specialty Media, Lavallette, N.J., USA) (Lawitts and Biggers, 1993) as a base medium were tested. In the first protocol, the oocytes were equilibrated in a 30 μl droplet of 0.75 mol/l PrOH in FHM20 (FHM medium containing 20% FBS) for 5 min, then transferred to a 30 μl droplet of 0.5 mol/l trehalose+1.5 mol/l PrOH in FHM20 for 5 min.
In the second protocol, oocytes were equilibrated in a 30 μl droplet of 0.75 mol/l PrOH in FHM20 for 5 min, then equilibrated in a 30 μl droplet of 1.5 mol/l PrOH in FHM20 for 5 min before being transferred to a 0.5 mol/l trehalose 2.0 mol/l PrOH in FHM20, for 5 min. The QC straws (The Charles Supper Company, USA) used for vitrification have an outer and inner diameter of approximately 0.2 and 0.18 mm, respectively, and a wall thickness of 0.01 mm (He et al., 2008). After exposure to the vitrification solution, the oocytes were then loaded into the 200 μm QC and plunged into liquid or slush nitrogen for comparison. For warming, the vitrified oocytes were immediately immersed in a holding medium containing 0.2 mol/l trehalose in […]phosphate-buffered saline (PBS; Gibco) at 37° C. for 1 minute. […]

[4] = cited from earlier work
[5] = both open pulled straw and quartz micro-capillary

CC(O)CO (stereo not drawn) [1,2-Propanediol (PROH), 1,2-propanediol]
appearance of the loaded quartz micro-capillary after plunging into liquid nitrogen ([1]; 1 M (7% v) 1,2-propanediol in FHM): opaque; also recorded: whitish appearance
appearance of the loaded quartz micro-capillary after plunging into liquid nitrogen ([1]; 2 M (14% v) 1,2-propanediol in FHM): clear appearance
threshold concentration lower than that of ethylene glycol (EG) [1, 5]: ~5 % v
threshold concentration lower than that of the combination of EG and PROH in a 1:1 ratio [1, 5]: 2.5 % v
threshold concentration for the complete absence of opacity ([1]; micro-capillary, liquid nitrogen): ~2 M
K4, tentative value ([2]; 1.8 M): ~10^4 ° C./min
critical cooling rate to achieve vitrification (Vcc) ([2]; 35% (w/w) aqueous solution): 5.0×10^3 ° C./min
critical cooling rate to achieve vitrification (Vcc) ([2]; 37.5% (w/w) aqueous solution): 1.8×10^3 ° C./min
critical cooling rate to achieve vitrification (Vcc) ([2]; 40% (w/w) aqueous solution): 8.0×10^2 ° C./min
attachment efficiency (normalized to control) [3]: minimum amount of cells can attach
cell survival, immediate viability (primary rat hepatocytes): ~35%
Surviving oocytes (mouse oocytes; liquid nitrogen, 1.5 mol/l PrOH + 0.5 mol/l trehalose in FHM20, QC): 18/40 (45.0) %
Surviving oocytes (mouse oocytes; liquid nitrogen, 2.0 mol/l PrOH + 0.5 mol/l trehalose in FHM20, QC): 19/40 (47.5) %
Surviving oocytes (mouse oocytes; slush nitrogen, 1.5 mol/l PrOH + 0.5 mol/l trehalose in FHM20, QC): 36/40 (90.0) %
Surviving oocytes (mouse oocytes; slush nitrogen, 2.0 mol/l PrOH + 0.5 mol/l trehalose in FHM20, QC): 28/40 (70.0) %
K4 ([4]; 35% (w/w) aqueous solution): 151 ° C./min
K4 ([4]; 37.5% (w/w) aqueous solution): 54.1 ° C./min
K4 ([4]; 40% (w/w) aqueous solution): 24.1 ° C./min

OCCO [Ethylene glycol (EG), ethylene glycol]
threshold concentration for the complete absence of opacity [1]: ~4 M

OC[C@H]1O[C@@](CO)(O[C@H]2O[C@H](CO)[C@@H](O)[C@H](O)[C@H]2O)[C@@H](O)[C@@H]1O [sucrose]
cell survival, immediate viability (primary rat hepatocytes): less than 10%

OC[C@H]1O[C@H](O[C@H]2O[C@H](CO)[C@@H](O)[C@H](O)[C@H]2O)[C@H](O)[C@@H](O)[C@@H]1O [trehalose]
attachment efficiency (normalized to control) [3]: minimum amount of cells can attach
